These results are taken from patent US12371453B2, “Polypeptide having antibacterial activity, composition for preventing or treating sepsis comprising same, and antibacterial composition” (priority 2019, dated 2025).

Series [1] is described as follows: Calcein dye leakage from liposome mimicking human red blood cell membrane. The class given is biochemical. Particulars: calcein-encapsulated liposome. The protocol: To study an action mechanism for FP12-NH2, FP13-NH2, allD FP12-NH2, and allD FP13-NH2 peptides, the disruption ability of the peptides against liposomes mimicking a bacterial cell membrane and a red blood cell membrane was measured.
EYPG is an abbreviation for egg yolk L-α-phosphatidyl-DL-glycerol, and EYPC is an abbreviation for egg yolk 1,2-diacyl-sn-glycero-3-phosphocholine. CH is an abbreviation for cholesterol. After dissolving the phospholipids composed according to the content of each component in chloroform, the chloroform was removed using a rotary evaporator, and lyophilization was performed overnight. Afterward, the dried lipid film was dissolved in a Tris-buffer solution, and calcein […]. After repeated freezing and thawing, the calcein-encapsulated liposome was manufactured using an extruder. Subsequently, after an excitation wavelength of a spectrofluorimeter (Shimadzu RF 5301 PC spectrofluorimeter, Japan) was set to 490 nm, and an emission wavelength was set to 520 nm, the peptide was administered to the liposome to measure relative dye leakage, provided that a 100% dye leakage was expressed as fluorescence intensity when 0.010% Triton-X100 was added.
The upper graphs of FIG. 3 show the % dye leakage for an EYPC/EYPG (7:3, w/w) liposome mimicking bacterial cells, encapsulating a fluorescent dye, calcein, by a peptide according to a peptide concentration. […] The lower graphs of FIG. 3 show the % dye leakage for an EYPC/CH (10:1, w/w) liposome, which is […] mimicking a human red blood, encapsulating a fluorescent dye, calcein, by a peptide according to a peptide concentration.

Another series has as its system E. coli. The class given is cell-based.
For series [2], the system named is trypsin, protease K, and chymotrypsin. Particulars: read out by antibacterial activity.
Series [3] can be described thus: LTA binding by ITC analysis. The following applies: cell wall component of gram-positive bacteria (S. aureus). The text has this: (§1) The binding affinity to lipoteichoic acid (LTA) and lipoprotein (LPP), which are cell wall components of gram-positive bacteria (S. aureus), was confirmed through ITC analysis using allD FP13-NH2.
(§2) The binding affinity was confirmed using the ITC analysis method, and the experimental method in Example 1 was applied mutatis mutandis.
A general note: In ITC the heat of successive injections is recorded.

Series [4] can be described thus: Calcein dye leakage from liposome mimicking gram-positive bacterial cell membrane. The class given is biochemical. The following applies: calcein-encapsulated liposome. How it is done:
To study the action mechanisms for FPT2-NH2, FPT3-NH2, allD FPT2-NH2, and allD FP13-NH2 peptides, the disruption ability of the peptides against a liposome mimicking a bacterial cell membrane was measured.

The next series deals with lipoprotein (LPP). In words: LPP binding by ITC analysis. The following applies: cell wall component of gram-positive bacteria (S. aureus).
From the text: as §1, §2

The subject of series [5] is Colistin resistant AB (Acinetobactor baumannii).
The next series relates to ESBL (E. coli). Particulars: ESBL.
The next series deals with CR-Klebsiella pneumoniae. The following applies: CR-.

By MIC50 is commonly meant an inhibitory concentration at the 50% level, which refers to growth in some studies and to a panel of isolates in others. For orientation: MIC90 means an inhibitory concentration at the 90% level, which refers to growth in some studies and to a panel of isolates in others.

Structures are written as SMILES. In brackets after ≈: the same amount, converted by molar mass. Read-outs that look alike come from different tables or passages of the source. Square brackets hold non-standard residues; d marks the D form. Peptide text beside a SMILES is read from it.

Take `CC(C)C[C@@H](NC(=O)[C@H](N)CCCCN)C(=O)N[C@H](CCCNC(=N)N)C(=O)N[C@@H](C(=O)N[C@H](CCCCN)C(=O)N[C@H](CC(C)C)C(=O)N[C@H](CCCNC(=N)N)C(=O)N[C@H](CCCNC(=N)N)C(=O)N[C@H](Cc1ccc(O)cc1)C(=O)N[C@H](CC(C)C)C(=O)N[C@H](CCCNC(=N)N)C(N)=O)C(C)C` [allD FP13-NH2] (H-[dK][dL][dR][dV][dK][dL][dR][dR][dY][dL][dR]-NH2; N-terminus assumed): in series [1], the “dye leakage, PC/CH liposome mimicking a red blood cell membrane” value is reported as “almost no dye leakage”. In addition, the MIC50 against E. coli worked out at 2 µM (≈ 3 µg/mL). Further, the figures for the MIC90 in the series with E. coli, in the series with E. coli (E. coli + 0.8 uM Chymotrypsin) and in the series with E. coli (E. coli + 0.8 uM protease K) were 4 µM (≈ 6 µg/mL), 6(4~8) uM and 6(4~8) uM, respectively. Also, the “resistance to the proteolytic enzyme” value in [2] is on record as “much improved resistance”. The “binding to LTA (ITC)” value in [3] is “binds”. In series [4], the “dye leakage, EYPG/EYPC (6:4, w/w) liposome mimicking gram-positive bacterial cell membrane” value is recorded as “high dye leakage”. In the series with lipoprotein (LPP), the “binding to LPP (ITC)” value is “binds”. The “MIC50, Colistin resistant AB” value in series [5] was less than 16 mg/L. For the same compound, the “MIC50, ESBL (E. coli)” value against ESBL (E. coli) was less than 0.5 mg/L. The “MIC50, CR-Klebsiella pneumoniae” value in the series on CR-Klebsiella pneumoniae was less than 8 mg/L.
